Experimental data from patent publication US12540150B1, “Fluorogenic probe using a Mislow-Evans rearrangement for real-time imaging of hydrogen peroxide” (University of Pittsburgh—Of the Commonwealth System of …, priority 2020, dated 2026).
“And” between values parts separate entries of the source, which are not always exact repeats. Equal values may be shown once.

Columns and labels:
HeLa cells = experiment: Imaging of exogenously added H2O2 in HeLa cells; format: cell-based; conditions: 0.5 μM 1, 37° C.
Experimental: It was then attempted to image H2O2 within cells. HeLa cells were seeded on 35-mm glass bottom dishes (MatTek Corporation, Ashland, MA) and incubated with 0.5 μM 1 in 0.1% DMSO in DMEM (10% FBS with penicillin/streptomycin) prior to imaging. After washing with HBSS and replacing the media, H2O2 was added. The dish was inserted in a closed, thermo-controlled (37° C.) stage top incubator (Tokai Hit Co., Shizuoka-ken, Ja-pan) atop the motorized stage of an inverted Nikon TiE fluorescent microscope (Nikon Inc., Melville, NY) equipped with a 60× oil immersion optic (Nikon, CFI PlanFluor, NA 1.49) and NIS Elements Software. The sample was excited using the 470 nm line of a Lumencor diode-pumped light engine (SpectraX, Lumencor Inc., Beaverton OR). Fluorescence was detected using an ET-GFP filter set (Chroma Technology Corp) and ORCA-Flash 4.0 sCMOS camera (HAMAMATSU Corporation, Bridgewater, NJ).

[1] = Kinetics of the reaction of 1 with H2O2

Oc1ccc2c(c1)Oc1cc(O/C=C/C[Se]c3ccccc3)ccc1[C@@]21OCc2ccccc21 [Compound 1, (S,E)-6′-((3-(Phenylselanyl)prop-1-en-1-yl)oxy)-3H-spiro[isobenzofuran-1,9′-xanthen]-3′-ol]
time to significant increase in fluorescence after H2O2 addition (HeLa cells): ≤ 30 s
rate of reaction with H2O2 relative to boronate-based probes [1]: seven times faster
second order rate constant k ([1]; 5% MeCN in pH 7.5 HEPES buffer 50 mM, [1]=1.7 μM): 9.82 ± 1.11 M⁻¹ s⁻¹
Slope k′ ([1]; [H2O2] 0.625 mM): 0.00251 s⁻¹
Slope k′ ([1]; [H2O2] 1.25 mM): 0.01359 s⁻¹
Slope k′ ([1]; [H2O2] 2.5 mM): 0.02432 s⁻¹
F-F0 (515 nm) ([1]; [H2O2] = 0.625 mM, 30 s): 145,691 and 101,161 and 83,026
[1] ([1]; [H2O2] = 0.625 mM, 30 s): 1.3453 µM and 1.4596 µM and 1.5061 µM
F-F0 (515 nm) ([1]; [H2O2] = 0.625 mM, 90 s): 220,196 and 277,036 and 236,883
[1] ([1]; [H2O2] = 0.625 mM, 90 s): 1.1541 µM and 1.0082 µM and 1.1113 µM
F-F0 (515 nm) ([1]; [H2O2] = 0.625 mM, 150 s): 301,900 and 391,059 and 348,470
[1] ([1]; [H2O2] = 0.625 mM, 150 s): 0.9444 µM and 0.7157 µM and 0.8249 µM
F-F0 (515 nm) ([1]; [H2O2] = 0.625 mM, 210 s): 355,049 and 458,596 and 422,910
[1] ([1]; [H2O2] = 0.625 mM, 210 s): 0.8081 µM and 0.5424 µM and 0.6339 µM
F-F0 (515 nm) ([1]; [H2O2] = 0.625 mM, 270 s): 390,358 and 499,861 and 473,964
[1] ([1]; [H2O2] = 0.625 mM, 270 s): 0.7175 µM and 0.4365 µM and 0.5029 µM
F-F0 (515 nm) ([1]; [H2O2] = 0.625 mM, 330 s): 421,561 and 522,358 and 509,584
[1] ([1]; [H2O2] = 0.625 mM, 330 s): 0.6374 µM and 0.3787 µM and 0.4115 µM
F-F0 (515 nm) ([1]; [H2O2] = 0.625 mM, 390 s): 450,025 and 534,705 and 536,252
[1] ([1]; [H2O2] = 0.625 mM, 390 s): 0.5643 µM and 0.3470 µM and 0.3431 µM
F-F0 (515 nm) ([1]; [H2O2] = 0.625 mM, 450 s): 477,638 and 541,922 and 555,207
[1] ([1]; [H2O2] = 0.625 mM, 450 s): 0.4935 µM and 0.3285 µM and 0.2944 µM
F-F0 (515 nm) ([1]; [H2O2] = 0.625 mM, 510 s): 501,767 and 546,290 and 569,868
[1] ([1]; [H2O2] = 0.625 mM, 510 s): 0.4316 µM and 0.3173 µM and 0.2568 µM
F-F0 (515 nm) ([1]; [H2O2] = 0.625 mM, 570 s): 524,121 and 550,122 and 581,518
[1] ([1]; [H2O2] = 0.625 mM, 570 s): 0.3742 µM and 0.3075 µM and 0.2269 µM
F-F0 (515 nm) ([1]; [H2O2] = 0.625 mM, 630 s): 543,908 and 551,490 and 591,076
[1] ([1]; [H2O2] = 0.625 mM, 630 s): 0.3234 µM and 0.3040 µM and 0.2024 µM
F-F0 (515 nm) ([1]; [H2O2] = 0.625 mM, 690 s): 559,985 and 551,741 and 599,176
[1] ([1]; [H2O2] = 0.625 mM, 690 s): 0.2822 µM and 0.3033 µM and 0.1816 µM
F-F0 (515 nm) ([1]; [H2O2] = 0.625 mM, 750 s): 570,897 and 553,475 and 603,780
[1] ([1]; [H2O2] = 0.625 mM, 750 s): 0.2542 µM and 0.2989 µM and 0.1698 µM
F-F0 (515 nm) ([1]; [H2O2] = 0.625 mM, 810 s): 580,693 and 553,568 and 609,902
[1] ([1]; [H2O2] = 0.625 mM, 810 s): 0.2290 µM and 0.2986 µM and 0.1541 µM
F-F0 (515 nm) ([1]; [H2O2] = 0.625 mM, 870 s): 587,536 and 552,326 and 614,108
F-F0 (515 nm) ([1]; [H2O2] = 1.25 mM, 30 s): 255,659 and 258,915 and 225,047
[1] ([1]; [H2O2] = 1.25 mM, 30 s): 1.0631 µM and 1.0547 µM and 1.1417 µM
F-F0 (515 nm) ([1]; [H2O2] = 1.25 mM, 90 s): 364,712 and 517,271 and 484,926
[1] ([1]; [H2O2] = 1.25 mM, 90 s): 0.7833 µM and 0.3918 µM and 0.4748 µM
F-F0 (515 nm) ([1]; [H2O2] = 1.25 mM, 150 s): 463,364 and 607,290 and 590,662
F-F0 (515 nm) ([1]; [H2O2] = 1.25 mM, 210 s): 514,663 and 641,798 and 639,332
F-F0 (515 nm) ([1]; [H2O2] = 1.25 mM, 270 s): 549,297 and 656,229 and 660,178
F-F0 (515 nm) ([1]; [H2O2] = 1.25 mM, 330 s): 572,635 and 661,539 and 664,254
F-F0 (515 nm) ([1]; [H2O2] = 1.25 mM, 390 s): 589,797 and 665,178 and 666,753
F-F0 (515 nm) ([1]; [H2O2] = 1.25 mM, 450 s): 601,493 and 663,842 and 669,367
F-F0 (515 nm) ([1]; [H2O2] = 1.25 mM, 510 s): 606,377 and 663,608 and 673,539
F-F0 (515 nm) ([1]; [H2O2] = 1.25 mM, 570 s): 612,207 and 662,594 and 675,671
